Assay [1] concerns the target T1, DYRK1A (Homo sapiens (Human), UniProt Q13627). As to the kind of experiment: KINOMEscan Assay (DiscoverX), DYRK1A binding. The following applies: for remaining binding at 30 µM: read-out: Screening (30 μM) DiscoverX: primary screen binding interactions, % DMSO Ctrl; for pKd: eleven serial three fold dilutions (in duplicate). How it is done: (§1) DYRK1A Binding Assays. Compounds were tested for DYRK1A binding activity at two different commercial kinase profiling services, Life Technologies and DiscoverX. […] Compounds were screened for DYRK1A activity at a single concentration of 30 μM in duplicates.

The target in assay [2] is T1, DYRK1A. Description: FRET-based LanthaScreen Eu Kinase Binding Assay (Life Technologies). The following applies: read-out: Screening (30 μM) LifeTech: % DYRK1A inhibition at 30 μM. How it is done:
as §1
Background: Time-resolved FRET reads energy transfer from a long-lived donor to a nearby acceptor.

pKd: −log10 of the molar value. Like-named read-outs stand apart in the source and are kept apart here.

What is called inhibition is the percentage by which the read-out fell short of the control. As a reminder, the pKd is −log10 of the Kd, conventionally taken in molar units. Read a low pKd as a high Kd.

On to `CCNC1=NN=C(c2ccc3[nH]c(=O)[nH]c3c2)CS1` [Compound 3-3, N-ethyl-5-(benzo[d]imidazol-2(3H)-one)-6H-1,3,4-thiadiazin-2-amine], for which the remaining binding at 30 µM in assay [1] is 0%. The inhibition at 30 µM in assay [2] (30 μM single concentration) was 69%.
`O=c1[nH]c2ccc(C3=NN=C(NCc4ccncc4)SC3)cc2[nH]1` [Compound 3-24, N-(pyridine-4yl)methyl-5-(benzo[d]imidazol-2(3H)-one)-6H-1,3,4-thiadiazin-2-amine]: the pKd in assay [1] was 5.66.
In the case of `N#Cc1cccc(CNC2=NN=C(c3ccc4[nH]c(=O)[nH]c4c3)CS2)c1` [Compound 3-22, N-(3-cyanobenzyl)-5-(benzo[d]imidazol-2(3H)-one)-6H-1,3,4-thiadiazin-2-amine], in assay [1], the remaining binding at 30 µM came to 12%. The inhibition at 30 µM in assay [2] worked out at 69%.
Taken in the same sequence, the figures for `O=c1[nH]c2ccc(C3=NN=C(NCc4cccc(C(F)(F)F)c4)SC3)cc2[nH]1` [Compound 3-19, N-(3-trifluoromethylbenzyl)-5-(benzo[d]imidazol-2(3H)-one)-6H-1,3,4-thiadiazin-2-amine] were 23% and 20%.
With `CCCCNC1=NN=C(c2ccc3[nH]c(=O)[nH]c3c2)CS1` [Compound 3-5, N-butyl-5-(benzo[d]imidazol-2(3H)-one)-6H-1,3,4-thiadiazin-2-amine], the remaining binding at 30 µM in assay [1] came out at 0%. In addition, in assay [2] (30 μM single concentration), the inhibition at 30 µM was 24%.
Regarding `CNC1=NN=C(c2ccc3[nH]c(=O)[nH]c3c2)CS1` [Compound 3-2, N-methyl-5-(benzo[d]imidazol-2(3H)-one)-6H-1,3,4-thiadiazin-2-amine], the remaining binding at 30 µM in assay [1] is 0.5%. Further, in assay [2] (30 μM single concentration), the inhibition at 30 µM stood at 63%.
On to `N#Cc1cccc(NC2=NN=C(c3ccc4[nH]c(=O)[nH]c4c3)CS2)c1` [Compound 3-31, N-(3-cyanophenyl)-5-(benzo[d]imidazol-2(3H)-one)-6H-1,3,4-thiadiazin-2-amine], for which the negative logarithm of the Kd (pKd) in assay [1] is 5.42.
Still for that read-out and setting: in the case of `O=c1[nH]c2ccc(C3=NN=C(NCCc4cccnc4)SC3)cc2[nH]1` [Compound 3-39, N-(2-(pyridine-3-yl)ethyl)-5-(benzo[d]imidazol-2(3H)-one)-6H-1,3,4-thiadiazin-2-amine] it was 5.66; in that of `O=c1[nH]c2ccc(C3=NN=C(NCc4cccc(Cl)c4)SC3)cc2[nH]1` [Compound 3-13, N-(3-chlorobenzyl)-5-(benzo[d]imidazol-2(3H)-one)-6H-1,3,4-thiadiazin-2-amine], 6.38.
For the compound `O=c1[nH]c2ccc(C3=NN=C(NCc4cccnc4)SC3)cc2[nH]1` [Compound 3-23, N-(pyridine-3yl)methyl-5-(benzo[d]imidazol-2(3H)-one)-6H-1,3,4-thiadiazin-2-amine], in assay [1], the pKd was 6.07 and the remaining binding at 30 µM amounted to 4.2%. Besides, the inhibition at 30 µM in assay [2] worked out at 74%.
Taken in the same sequence, the figures for `O=c1[nH]c2ccc(C3=NN=C(NCCc4ccccn4)SC3)cc2[nH]1` [Compound 3-38, N-(2-(pyridine-1-yl)ethyl)-5-(benzo[d]imidazol-2(3H)-one)-6H-1,3,4-thiadiazin-2-amine] were 5.80, 8.4% and 87%.
As for `O=c1[nH]c2ccc(C3=NN=C(NCc4ccccc4Cl)SC3)cc2[nH]1` [Compound 3-14, N-(2-chlorobenzyl)-5-(benzo[d]imidazol-2(3H)-one)-6H-1,3,4-thiadiazin-2-amine], the pKd in assay [1] is 6.08.
Regarding `O=c1[nH]c2ccc(C3=NN=C(NCc4ccccc4C(F)(F)F)SC3)cc2[nH]1` [Compound 3-20, N-(2-trifluoromethylbenzyl)-5-(benzo[d]imidazol-2(3H)-one)-6H-1,3,4-thiadiazin-2-amine], in assay [1], the pKd is 5.11 and the remaining binding at 30 µM amounted to 38%. Further, in assay [2], the inhibition at 30 µM worked out at 24%.
Take `CC(NC1=NN=C(c2ccc3[nH]c(=O)[nH]c3c2)CS1)c1ccc(F)cc1` (centres unmarked) [Compound 3-26, N-(1-(4-fluorophenyl)ethyl)-5-(benzo[d]imidazol-2(3H)-one)-6H-1,3,4-thiadiazin-2-amine]: the negative-log Kd (pKd) in assay [1] is 5.64.
`CC(NC1=NN=C(c2ccc3[nH]c(=O)[nH]c3c2)CS1)c1ccccc1` (centres unmarked) [Compound 3-25, N-(1-phenylethyl)-5-(benzo[d]imidazol-2(3H)-one)-6H-1,3,4-thiadiazin-2-amine]: the remaining binding at 30 µM in assay [1] turned out to be 3.7%. Moreover, the inhibition at 30 µM in assay [2] came out at 57%.
Taken in the same sequence, the figures for `O=c1[nH]c2ccc(C3=NN=C(NCc4ccc(F)cc4)SC3)cc2[nH]1` [Compound 3-15, N-(4-fluorobenzyl)-5-(benzo[d]imidazol-2(3H)-one)-6H-1,3,4-thiadiazin-2-amine] were 8.9% and 95%.
`O=c1[nH]c2ccc(C3=NN=C(Nc4cccc(C(F)(F)F)c4)SC3)cc2[nH]1` [Compound 3-30, N-(3-trifluoromethylphenyl)-5-(benzo[d]imidazol-2(3H)-one)-6H-1,3,4-thiadiazin-2-amine] had a pKd in assay [1] of 4.85.
`O=c1[nH]c2ccc(C3=NN=C(NCc4cccc(F)c4)SC3)cc2[nH]1` [Compound 3-16, N-(3-fluorobenzyl)-5-(benzo[d]imidazol-2(3H)-one)-6H-1,3,4-thiadiazin-2-amine] showed a negative-log Kd (pKd) in assay [1] of 6.05.
`CC(C)(C)NC1=NN=C(c2ccc3[nH]c(=O)[nH]c3c2)CS1` [Compound 3-7, N-t-butyl-5-(benzo[d]imidazol-2(3H)-one)-6H-1,3,4-thiadiazin-2-amine]: the remaining binding at 30 µM in assay [1] turned out to be 0.75%. The inhibition at 30 µM in assay [2] (30 μM single concentration) is 46%.
Taken in the same sequence, the figures for `CCCNC1=NN=C(c2ccc3[nH]c(=O)[nH]c3c2)CS1` [Compound 3-4, N-propyl-5-(benzo[d]imidazol-2(3H)-one)-6H-1,3,4-thiadiazin-2-amine] were 2.9% and 48%.
`O=c1[nH]c2ccc(C3=NN=C(NCCc4ccccc4)SC3)cc2[nH]1` [Compound 3-34, N-(2-phenylethyl)-5-(benzo[d]imidazol-2(3H)-one)-6H-1,3,4-thiadiazin-2-amine]: in assay [1], the pKd was 5.80 and the remaining binding at 30 µM came to 0.5%. Also, the inhibition at 30 µM in assay [2] was determined as 61%.
With `O=c1[nH]c2ccc(C3=NN=C(NCc4ccc(C(F)(F)F)cc4)SC3)cc2[nH]1` [Compound 3-18, N-(4-trifluoromethylbenzyl)-5-(benzo[d]imidazol-2(3H)-one)-6H-1,3,4-thiadiazin-2-amine], in assay [1], the remaining binding at 30 µM turned out to be 40%. In addition, the inhibition at 30 µM in assay [2] is 53%.
Consider `N#Cc1ccc(CNC2=NN=C(c3ccc4[nH]c(=O)[nH]c4c3)CS2)cc1` [Compound 3-21, N-(4-cyanobenzyl)-5-(benzo[d]imidazol-2(3H)-one)-6H-1,3,4-thiadiazin-2-amine], for which, in assay [1], the remaining binding at 30 µM was 12%. In assay [2], the inhibition at 30 µM was 47%.
The compound `NC(=O)c1cccc(CNC2=NN=C(c3ccc4[nH]c(=O)[nH]c4c3)CS2)c1` [Compound 4-2, N-(3-carboxyaminobenzyl)-5-(benzo[d]imidazol-2(3H)-one)-6H-1,3,4-thiadiazin-2-amine] showed a pKd in assay [1] of 6.36.
The same measure, in the same setting: to `O=c1[nH]c2ccc(C3=NN=C(Nc4cccc(F)c4)SC3)cc2[nH]1` [Compound 3-29, N-(3-fluorophenyl)-5-(benzo[d]imidazol-2(3H)-one)-6H-1,3,4-thiadiazin-2-amine] belongs 5.15.
For the compound `CC(C)NC1=NN=C(c2ccc3[nH]c(=O)[nH]c3c2)CS1` [Compound 3-6, N-isopropyl-5-(benzo[d]imidazol-2(3H)-one)-6H-1,3,4-thiadiazin-2-amine], the remaining binding at 30 µM in assay [1] came to 2.3%. Moreover, the inhibition at 30 µM in assay [2] (30 μM single concentration) turned out to be 59%.
Turning to `O=c1[nH]c2ccc(C3=NN=C(NCc4cccc5ccccc45)SC3)cc2[nH]1` [Compound 3-41, N-(1-naphthylmethyl)-5-(benzo[d]imidazol-2(3H)-one)-6H-1,3,4-thiadiazin-2-amine], in assay [1], the pKd is 5.14 and the remaining binding at 30 µM is 36%. Further, the inhibition at 30 µM in assay [2] was found to be 11%.
For `O=c1[nH]c2ccc(C3=NN=C(Nc4ccccc4)SC3)cc2[nH]1` [Compound 3-28, N-phenyl-5-(benzo[d]imidazol-2(3H)-one)-6H-1,3,4-thiadiazin-2-amine], in assay [1], the negative-log Kd (pKd) was 4.72 and the remaining binding at 30 µM was determined as 41%. For the same compound, the inhibition at 30 µM in assay [2] stood at 39%.
Take `O=c1[nH]c2ccc(C3=NN=C(NCc4ccc(Cl)cc4)SC3)cc2[nH]1` [Compound 3-12, N-(4-chlorobenzyl)-5-(benzo[d]imidazol-2(3H)-one)-6H-1,3,4-thiadiazin-2-amine]: in assay [1], the pKd is 6.73 and the remaining binding at 30 µM came to 19%. The inhibition at 30 µM in assay [2] turned out to be 93%.
Regarding “N-(3-phenylpropyl)-5-(benzo[d]imidazol-2(3H)-one)-6H-1,3,4-thiadiazin-2-amine [Compound 3-37]”, the pKd in assay [1] is 6.02.
